Values after ≈ are worked out from the molar mass of the structure shown.
How the values were obtained:
Format in all cases: cell-based
[1] = test system: E. coli HS151 (ΔtolC); assay: microbe, parasite or virus in culture; conditions: Escherichia coli
Excerpt: (§1) E. coli HS151 (ΔtolC) has been described previously. […] E. coli BW25113 and the Keio gene deletion collection based on BW25113 [25] were obtained from Thermo Fisher Scientific (Waltham, MA) and described in [26]. The plasmid-borne FQ resistance determinant, qnrVC3 [27], was kindly provided by D. Hooper (Massachusetts General Hospital). […] MB2884 (E. coli) and CL15245 (K. pneumoniae) are clinical isolates from the Merck & Co., Inc., Kenilworth, NJ, USA, strain collection. S. aureus COL is a methicillin-resistant clinical isolate.
(§2) Compound doubling dilutions were prepared in 100% DMSO (Sigma Aldrich) and 2 μL of each dilution was transferred to a 96-well plate with lid (Thermo Scientific). Inoculum for all MIC testing was prepared using the BBL Prompt Inoculation System (Becton Dickinson, Franklin Lakes, NJ USA) as described by the manufacturer to produce a suspension of cells at approximately 1.5 x 10^8 colony forming units (CFU)/mL [34–36] and a further dilution (1:1000) was made into cation adjusted Mueller-Hinton broth (CAMH broth, Becton-Dickinson). One hundred μL of this inoculum were then transferred to each well of the 96-well plate containing diluted compound (above). Plates were covered and incubated overnight (18 hrs.) at 37°C.

[2] = test system: E. coli GYR102 GyrB E466EV; assay: microbe, parasite or virus in culture; conditions: Escherichia coli
Excerpt: as §1, §2
(§3) After the agar solidified, 5 μL of a saturated bacterial culture, grown in CAMH broth, were dispensed on the agar surface and allowed to dry at room temperature. […] After the surface dried at room temperature the plate was incubated at 37°C overnight. […] Genomic DNA from the parent strain (E. coli HS151) and purified (restreaked) resistant isolates was obtained with a GeneJET genomic DNA purification kit according to the manufacturer’s instructions (Fisher Scientific). Assembled whole genome mutant sequences were then compared to the parent strain and polymorphisms were identified as described.

[3] = test system: E. coli GYR104 GyrB L470I; assay: microbe, parasite or virus in culture; conditions: Escherichia coli
Excerpt: as §1, §2, §3

[4] = test system: E. coli GYR107 GyrB F513L/L422V; assay: microbe, parasite or virus in culture; conditions: Escherichia coli
Excerpt: as §1, §2, §3

[5] = test system: E. coli GYR101 GyrB F513L; assay: microbe, parasite or virus in culture; conditions: Escherichia coli
Excerpt: as §1, §2, §3

[6] = test system: E. coli GYR106 GyrB F513L/A468V; assay: microbe, parasite or virus in culture; conditions: Escherichia coli
Excerpt: as §1, §2, §3

[7] = test system: E. coli GYR105 GyrB T469K; assay: microbe, parasite or virus in culture; conditions: Escherichia coli
Excerpt: as §1, §2, §3

[8] = test system: E. coli GYR108 GyrB L470I/V467L; assay: microbe, parasite or virus in culture; conditions: Escherichia coli
Excerpt: as §1, §2, §3

[9] = test system: E. coli CIP101 GyrA D87N; assay: microbe, parasite or virus in culture; conditions: Escherichia coli
Protocol: as §2

[10] = test system: E. coli GYR103 GyrB L446Q; assay: microbe, parasite or virus in culture; conditions: Escherichia coli
Excerpt: (§4) E. coli HS151 (ΔtolC) has been described previously. Gyrase inhibitor-resistant isolates (GYR101-108) were derived by selection for spontaneous resistance to MRL-770 or MRL-423 (Fig 1) in E. coli HS151 as described below. E. coli BW25113 and the Keio gene deletion collection based on BW25113 [25] were obtained from Thermo Fisher Scientific (Waltham, MA) and described in [26]. The plasmid-borne FQ resistance determinant, qnrVC3 [27], was kindly provided by D. Hooper (Massachusetts General Hospital). MB9796 (A. baumannii) is a derivative of MB9797 (ATCC19606) lacking lipopolysaccharide. The efflux-defective P. aeruginosa strain MB5890 (CB398) is a derivative of MB5919 (PAO1). MB2884 (E. coli) and CL15245 (K. pneumoniae) are clinical isolates from the Merck & Co., Inc., Kenilworth, NJ, USA, strain collection. S. aureus COL is a methicillin-resistant clinical isolate.
as §2
After the agar solidified, 5 μL of a saturated bacterial culture, grown in CAMH broth, were dispensed on the agar surface and allowed to dry at room temperature. […] To select for resistance, a 100 mm petri dish was filled with 25 mL CAMH agar containing 8 μg/mL MRL-770 or 0.5 μg/mL MRL-423 (Fig 1). The cells in 1 mL of an overnight culture of E. coli HS151 (~10^9 CFU/mL) were concentrated by centrifugation and spread onto the surface of an MRL-770 or MRL-423 containing plate. After the surface dried at room temperature the plate was incubated at 37°C overnight. Any colonies that arose were counted and an approximate frequency of resistance was calculated after confirming resistance by restreaking on media containg compound as well as measuring MICs (see Results). Genomic DNA from the parent strain (E. coli HS151) and purified (restreaked) resistant isolates was obtained with a GeneJET genomic DNA purification kit according to the manufacturer’s instructions (Fisher Scientific). Assembled whole genome mutant sequences were then compared to the parent strain and polymorphisms were identified as described.

[11] = test system: E. coli HS151; assay: In vitro time-dependent bactericidal study; conditions: E. coli HS151; at the 4 hour time point
Protocol: A culture of E. coli HS151 in CAMH broth was grown overnight (18 hrs.) at 37°C, diluted 1:10,000 in 200 mL of fresh CAMH broth and further incubated for 1 hour at 37°C with shaking. A time-zero sample was then removed and 20 mL portions of the remaining culture were transferred into 125 mL vented flasks to which were added MRL-1082 or control antibiotics, at the indicated concentrations. These flasks were then incubated at 37°C with shaking (70 rpm). Samples were withdrawn at the indicated times, plated on blood agar (trypticase soy agar with 5% sheep blood, Becton-Dickinson) and, following overnight growth at 37°C, colonies were counted to determine CFU/mL.

[12] = test system: E. coli HS151 (qnrVC); assay: Broth microdilution MIC, E. coli HS151 (qnrVC); conditions: Escherichia coli
Excerpt: as §4, §2

[13] = test system: E. coli BW25113 ΔtolC/ΔyacG; assay: Broth microdilution MIC, E. coli BW25113 ΔtolC/ΔyacG; conditions: Escherichia coli, BW25113
Protocol: as §2
The yacG deletion allele from the Keio collection was amplified by PCR (primers: […] and […]) and moved to BW25113 ΔtolC as described below. The E. coli strain BW25113 ΔtolC containing pKD46 [25] was used to inoculate SOB (Invitrogen)/0.2% w/v arabinose (Sigma Aldrich)/ampicillin (100 μg/mL) and grown overnight at 30°C. The overnight culture was then diluted 1/40 into 20 mL fresh SOB/0.2% w/v arabinose/ampicillin (100 μg/mL) and grown at 30°C while shaking for ~3 hrs until OD600 = 0.5. Cells were pelleted by centrifugation at 4000 rpm for 10 min, washed with 40 mL ice cold sterile, distilled H2O, then 3 x 1 mL ice cold 10% glycerol followed by centrifugation at 5000 g for 3 minutes. The pellet was resuspended in 100 μL of 10% glycerol (1/200 of starting culture). For transformation, 5 μL of gel purified PCR product was added to 50 μL cells, mixed, and immediately electroporated in a 0.2 cm gap cuvette at 2.5kV, 25 μF, 200 Ω (BioRad, Hercules, CA USA). Electroporated cells were recovered in 1 mL SOC (Invitrogen)/0.2% arabinose at 37°C for 2 hours with shaking. Cells in amounts of 50 and 950 μL were then plated on LB agar supplemented with kanamycin (25 μg/mL) and incubated overnight at 37°C. Correct gene replacements were verified by PCR.

[14] = test system: E. coli BW25113 ΔtolC; assay: Broth microdilution MIC, E. coli BW25113 ΔtolC; conditions: Escherichia coli
Excerpt: as §4, §2
The yacG deletion allele from the Keio collection was amplified by PCR (primers: […] and […]) and moved to BW25113 ΔtolC as described below. The E. coli strain BW25113 ΔtolC containing pKD46 [25] was used to inoculate SOB (Invitrogen)/0.2% w/v arabinose (Sigma Aldrich)/ampicillin (100 μg/mL) and grown overnight at 30°C. The overnight culture was then diluted 1/40 into 20 mL fresh SOB/0.2% w/v arabinose/ampicillin (100 μg/mL) and grown at 30°C while shaking for ~3 hrs until OD600 = 0.5. […]

[15] = test system: DNA synthesis in E. coli JL553; assay: Macromolecule synthesis labeling; conditions: E. coli JL553, 25 min exposure, labeled precursor incorporation
Protocol: Macromolecule synthesis profiling was conducted as described by Montgomery, et al. with minor modifications. E. coli strain JL553 (tolC, lysE) was used to measure inhibition of DNA, RNA, protein, peptidoglycan and phospholipid biosynthesis while E. coli MB5500 (lpxC [envA1], galE; Merck & Co., Inc., Kenilworth, NJ, USA, strain collection) was used to measure inhibition of lipopolysaccharide biosynthesis. Radioisotope labeled precursors were used at the following final concentrations [2-^14C]-thymidine (2.5 μCi/mL), [^14C(U)]-uridine (0.5 μCi/mL), L-[4, 5-^3H]-leucine (5 μCi/mL), [2-^3H]-glycerol (2 μCi/mL), [^3H]-diaminopimelic acid (3 μCi/mL), D-[1-^14C]-galactose (0.5 μCi/mL). Compound concentrations (3-fold serial dilutions) were chosen to place the minimum inhibitory concentration (see below) near the center of the dose range. Labeled cultures were incubated with compound for 25 min; stopped with trichloroacetic acid, filtered and incorporation was measured as described. Percent inhibition of incorporation was calculated relative to an untreated control culture for each labeled precursor and plotted with GraphPad Prism.

[16] = test system: A. baumanii MB9797 (ATCC19606); assay: Broth microdilution MIC, A. baumannii MB9797; conditions: Acinetobacter baumannii
Excerpt: as §4, §2

[17] = test system: S. aureus (MRSA) COL; assay: Broth microdilution MIC, S. aureus COL; conditions: Staphylococcus aureus, MRSA
Excerpt: as §4, §2

[18] = test system: A. baumannii ΔlpxC MB9796; assay: Broth microdilution MIC, A. baumannii MB9796; conditions: Acinetobacter baumannii
Excerpt: as §4, §2

[19] = test system: P. aeruginosa MB5919 (PAO1); assay: Broth microdilution MIC, P. aeruginosa MB5919; conditions: Pseudomonas aeruginosa
Excerpt: as §1, §2

[20] = test system: E. coli MB2884 (clinical isolate); assay: Broth microdilution MIC, E. coli MB2884; conditions: Escherichia coli
Excerpt: as §1, §2

[21] = test system: K. pneumoniae CL15245 (clinical isolate); assay: Broth microdilution MIC, K. pneumoniae CL15245; conditions: Klebsiella pneumoniae
Excerpt: as §1, §2

SMILES	MIC [2]	MIC [3]	MIC [5]	MIC [6]	MIC [8]	MIC [9]	MIC [10]	MIC [16]	MIC [17]	MIC [18]	further results
COc1cc(Cc2cnc(N)nc2N)cc(OC)c1OC [Trimeth-oprim]	0.0625 µg/mL (≈ 0.215 µM)	0.0625 µg/mL (≈ 0.215 µM)	0.0625 µg/mL (≈ 0.215 µM)	0.0625 µg/mL (≈ 0.215 µM)	0.125 µg/mL (≈ 0.431 µM)	0.0625 µg/mL (≈ 0.215 µM)	0.0625 µg/mL (≈ 0.215 µM)	–	–	–	MIC ([1]; Table 2, HS151, GyrB mutation none): 0.0625 µg/mL (≈ 0.215 µM); MIC [4]: 0.0625 µg/mL (≈ 0.215 µM); MIC [7]: 0.0625 µg/mL (≈ 0.215 µM)
O=C(O)c1cn(C2CC2)c2cc(N3CCNCC3)c(F)cc2c1=O [ciprofloxacin]	–	–	–	–	0.0039 µg/mL (≈ 0.0118 µM)	0.0312 µg/mL (≈ 0.0943 µM)	0.0039 µg/mL (≈ 0.0118 µM)	> 0.125 µg/mL	> 0.125 µg/mL	0.0625 µg/mL (≈ 0.189 µM)	culture viability, below lower limit of quantitation [11]: < 20 CFU/mL; MIC ([1]; Table 3, HS151): 0.004 µg/mL (≈ 0.0121 µM); MIC [12]: 0.03 µg/mL (≈ 0.0905 µM); MIC [13]: 0.004 µg/mL (≈ 0.0121 µM); MIC [14]: 0.004 µg/mL (≈ 0.0121 µM); inhibition of macromolecule synthesis [15]: Dose-dependent, selective inhibition of DNA synthesis
C[C@H]1COc2c(N3CCN(C)CC3)c(F)cc3c(=O)c(C(=O)O)cn1c23 [levofloxacin]	0.0312 µg/mL (≈ 0.0865 µM)	0.0078 µg/mL (≈ 0.0216 µM)	0.0078 µg/mL (≈ 0.0216 µM)	0.0078 µg/mL (≈ 0.0216 µM)	–	0.0625 µg/mL (≈ 0.173 µM)	0.0078 µg/mL (≈ 0.0216 µM)	0.125 µg/mL (≈ 0.346 µM)	> 0.125 µg/mL	0.0156 µg/mL (≈ 0.0432 µM)	MIC ([1]; 18 h, Table 1, HS151 E. coli ΔtolC): 0.00195 µg/mL (≈ 0.0054 µM); MIC [19]: > 0.125 µg/mL; MIC [20]: 0.0156 µg/mL (≈ 0.0432 µM); MIC [21]: 0.0156 µg/mL (≈ 0.0432 µM)

From PMC5507300, “Antibacterial small molecules targeting the conserved TOPRIM domain of DNA gyrase” (PLoS ONE, 2017)
